Laboratory results from patent publication US7803788B2, “Prodrugs of phosphonate nucoleotide analogues” (Gilead Sciences, Inc., priority 2000, dated 2010).
Like-named read-outs stand apart in the source and are kept apart here.

Assays:
[1] = test system: HIV-1; test: In vitro anti-HIV-1 activity in MT-2 cells; assay type: cell-based
[2] = test system: MT-2 cells; test: Cytotoxicity in MT-2 cells; details: Table 4
[3] = dogs, oral, 10 mg-equivalent of PMPA/kg
Method: Formulations. The prodrugs were formulated as solutions in 50 mM citric acid within 0.5 hour prior to dose. All compounds used in the studies were synthesized by Gilead Sciences. The following lots were used:
Dose Administration and Sample Collection. The in-life phase of this study was conducted in accordance with the recommendations of the “Guide for the Care and Use of Laboratory Animals” (National Institutes of Health publication 86-23) and was approved by an Institutional Animal Care and Use Committee. Fasted male beagle dogs (10±2 kg) were used for the studies. Each drug was administered as a single dose by oral gavage (1.5-2 ml/kg). The dose was 10 mg-equivalent of PMPA/kg. […] Blood (1.0 ml) was processed immediately for plasma by centrifugation at 2,000 rpm for 10 min. Plasma samples were frozen and maintained at […] until analyzed.
Peripheral Blood Mononuclear Cell (PBMC) preparation. Whole blood (8 ml) drawn at specified time points was mixed in equal proportion with phosphate buffered saline (PBS), layered onto 15 ml of Ficoll-Paque solution (Pharmacia Biotech,) and centrifuged at 400×g for 40 min. PBMC layer was removed and washed once with PBS. Formed PMBC pellet was reconstituted in 0.5 ml of PBS, cells were resuspended, counted using hemocytometer and maintained at […] until analyzed. The number of cells multiplied by the mean single-cell volume was used in calculation of intracellular concentrations. […] Agents Chemother.
Determination of PMPA and Prodrugs in plasma and PBMCs. […] Derivatized samples were then evaporated to dryness and reconstituted in 100 μl of water for HPLC analysis.
Before intracellular PMPA could be determined by HPLC, the large amounts of adenine related ribonucleotides present in the PBMC extracts had to be removed by selective oxidation.
The mobile phases used were: A, 5% acetonitrile in 25 mM potassium phosphate buffer with 5 mM tetrabutyl ammonium bromide (TBABr), pH 6.0; B, 60% acetonitrile in 25 mM potassium phosphate buffer with 5 mM TBABr, pH 6.0. The flow rate was 2 ml/min and the column temperature was maintained at 35° C. by a column oven. […] Data was acquired and stored by a laboratory data acquisition system (PeakPro, Beckman, Allendale, N.J.).
Pharmacokinetic Calculations. […] The AUC values were calculated using the trapezoidal rule.

[4] = Stability in human plasma; assay type: in vitro ADME; details: 37° C., TBS pH 7.5
Method: (§1) The in vitro metabolism and stability of separated diastereomers were determined in PLCE, MT-2 extract and human plasma. A biological sample listed below, 80 μL, was transferred into a screw-capped centrifuge tube and incubated at 37° C. for 5 min. A solution containing 0.2 mg/mL of the test compound in a suitable buffer, 20 μL, was added to the biological sample and mixed. The reaction mixture, 20 μL, was immediately sampled and mixed with 60 μL of methanol containing 0.015 mg/mL of 2-hydroxymethylnaphthalene as an internal standard for HPLC analysis. The sample was taken as the time-zero sample. Then, at specific time points, the reaction mixture, 20 μL, was sampled and mixed with 60 μl of methanol containing the internal standard. The mixture thus obtained was centrifuged at 15,000 G for 5 min and the supernatant was analyzed with HPLC under the conditions described below.
(§2) The biological samples evaluated are as follows, • (1) PLCE (porcine liver carboxyesterase from Sigma, 160 u/mg protein, 21 mg protein/mL) diluted 20 fold with PBS (phosphated-buffered saline). • (2) MT-2 cell extract was prepared from MT-2 cells according to the published procedure [A. Pompon, I. Lefebvre, J.-L. Imbach, S. Kahn, and D. Farquhar, “Antiviral Chemistry & Chemotherapy”, 5:91-98 (1994)] except for using HEPES buffer described below as the medium. • (3) Human plasma (pooled normal human plasma from George King Biomedical Systems, Inc.)
In the study for human plasma, the test compound was dissolved in TBS. TBS (tris-buffered saline, Sigma) contains 0.05 M Tris, 0.0027 M potassium chloride, and 0.138 M sodium chloride. pH 7.5 at 37° C.
(§3) The HPLC analysis was carried out under the following conditions.

[5] = Stability / hydrolysis in MT-2 cell extract; assay type: in vitro ADME; details: 37° C., HEPES buffer pH 7.4
Method: as §1, §2
In the study for MT-2 cell extracts, the test compound was dissolved in HEPES buffer. HEPES buffer contains 0.010 M HEPES, 0.05 M potassium chloride, 0.005 M magnesium chloride, and 0.005 M dl-dithiothreitol. pH 7.4 at 37° C.
as §3

[6] = Excretion and tissue distribution of radiolabelled GS-7340 in dogs; details: for % Dose / Conc.: dogs, oral 10 mg-eq. PMPA/kg
Method: Plasma and peripheral blood mononuclear cells (PBMCs) were obtained over the 24-hr period. Urine and feces were cage collected over 24 hr. At 24 h after the dose, the animals were sacrificed and tissues removed for analysis. Total radioactivity in tissues was determined by oxidation and liquid scintillation counting.

[7] = Table 4, activity of isomer A over isomer B
[8] = Table 4, effect of diastereomer, read-out: IC50
[9] = Table 5 (selected IC50 data from Table 4), read-out: HIV IC50

## COC(=O)C(C)NP(=O)(COC(C)Cn1cnc2c(N)ncnc21)Oc1ccccc1 (single isomer, unassigned) [GS-6957b]
[1]; Table 4, IC50 relative to PMPA
  Fold change: 33x

## COC(=O)C(C)NP(=O)(COC(C)Cn1cnc2c(N)ncnc21)Oc1ccccc1 (single isomer, unassigned) [GS-6957a]
[1]; Table 4, IC50 relative to PMPA
  Fold change: 670x

## COC(=O)C(Cc1ccccc1)NP(=O)(COC(C)Cn1cnc2c(N)ncnc21)Oc1ccccc1 (single isomer, unassigned) [GS-7003a]
[1]
  Fold change: 500x

## COC(=O)C(C)NP(=O)(COC(C)Cn1cnc2c(N)ncnc21)Oc1ccccc1 (mixture of isomers) [Ala-methylester]
[2]
  CC50: 80000 nM
[1]; Table 4, IC50 relative to PMPA
  Fold change: 200x
[1]; [7]
  A/B activity: 20x

## CCOC(=O)CNP(=O)(COC(C)Cn1cnc2c(N)ncnc21)Oc1ccccc1 (single isomer, unassigned) [GS-7335]
[1]
  Fold change: 5x

## CCOC(=O)C(C)NP(=O)(COC(C)Cn1cnc2c(N)ncnc21)Oc1ccccc1 (single isomer, unassigned) [GS-7115]
[1]; [8]
  IC50: 50 nM
[1]; Table 4, IC50 relative to PMPA
  Fold change: 100x
[3]
  PBMC/Plasma Exposure Ratio: 43
  Prodrug in Plasma: YES

## CCOC(=O)CNP(=O)(CO[C@H](C)Cn1cnc2c(N)ncnc21)Oc1ccccc1 (some centres unmarked) [GS-7119]
[2]
  CC50: > 100000 nM
[1]
  Fold change: 100x

## CCOC(=O)[C@H](CC)NP(=O)(CO[C@H](C)Cn1cnc2c(N)ncnc21)Oc1ccccc1 (some centres unmarked) [ABA-ethyl]
[2]
  CC50: > 100000 nM
[1]
  A/B activity: 7.5x
  Fold change: 625x

## CC(C)OC(=O)[C@H](C)N[P@](=O)(CO[C@H](C)Cn1cnc2c(N)ncnc21)Oc1ccccc1 [GS-7339]
[2]
  CC50: > 100000 nM
[1]; [8]
  IC50: 60 nM

## CCOC(=O)C(C)NP(=O)(COC(C)Cn1cnc2c(N)ncnc21)Oc1ccccc1 (single isomer, unassigned) [GS-7114]
[1]; [8]
  IC50: 5 nM
[1]; Table 4, IC50 relative to PMPA
  Fold change: 1,000x
[3]
  PBMC/Plasma Exposure Ratio: 122
  Prodrug in Plasma: YES

## CC(C)OC(=O)C(C)NP(=O)(COC(C)Cn1cnc2c(N)ncnc21)Oc1ccccc1 (single isomer, unassigned) [compound 4]
[1]; [9]
  IC50: 60 nM

## CCOC(=O)C(CC)NP(=O)(COC(C)Cn1cnc2c(N)ncnc21)Oc1ccccc1 (centres unmarked) [GS-7342]
[1]
  Fold change: 1,250x

## CC(C)OC(=O)[C@H](C)N[P@](=O)(CO[C@H](C)Cn1cnc2c(N)ncnc21)Oc1ccccc1 [compound 3]
[1]; [9]
  IC50: 5 nM
[4]
  Human Plasma Stability (HP) t1/2: 90.0 min
[5]
  MT-2 extract hydrolysis product: Met. X & PMPA

## CCOC(=O)C(C)NP(=O)(COC(C)Cn1cnc2c(N)ncnc21)Oc1ccccc1 (mixture of isomers) [Ala-ethyl, Phenyl PMPA, Ethyl L-Alanyl Amidate]
[2]
  CC50: 60000 nM
[1]; Table 4, IC50 relative to PMPA
  Fold change: 250x
[1]; [7]
  A/B activity: 10x

## CC(C)OC(=O)OCOP(=O)(CO[C@H](C)Cn1cnc2c(N)ncnc21)OCOC(=O)OC(C)C.O=C(O)/C=C/C(=O)O [TDF, tenofovir disoproxil fumarate]
[6]; Abdominal fat
  % Dose: 0.00%
  Conc.: 0.16 ug-eq/g
[6]; Adrenal Gland
  % Dose: 0.00%
  Conc.: 1.90 ug-eq/g
[6]; Axillary Lymph Nodes
  % Dose: 0.00%
  Conc.: 0.37 ug-eq/g
[6]; Bile
  % Dose: 0.00%
[6]; Bone Marrow
  % Dose: 0.00%
  Conc.: 0.20 ug-eq/g
[6]; Brain
  % Dose: 0.00%
  Conc.: <LOD
[6]; Cerebrospinal Fluid
  % Dose: 0.00%
  Conc.: <LOD
[6]; Duodenum
  % Dose: 0.49%
[6]; Eye (L + R)
  % Dose: 0.00%
  Conc.: 0.06 ug-eq/g
[6]; Femoral Bone
  % Dose: 0.00%
  Conc.: 0.08 ug-eq/g
[6]; Gall bladder
  % Dose: 0.00%
[6]; Heart
  % Dose: 0.03%
  Conc.: 0.46 ug-eq/g
[6]; Ileum
  % Dose: 0.01%
  Conc.: 0.50 ug-eq/g
[6]; Iliac Lymph Nodes
  % Dose: 0.00%
  Conc.: 0.51 ug-eq/g
[6]; Inguinal Lymph Nodes
  % Dose: 0.00%
  Conc.: 0.28 ug-eq/g
[6]; Lungs
  % Dose: 0.03%
  Conc.: 0.53 ug-eq/g
[6]; Mesenteric Lymph Nodes
  % Dose: 0.00%
  Conc.: 1.20 ug-eq/g
[6]; Pancreas
  % Dose: 0.00%
  Conc.: 0.57 ug-eq/g
[6]; Pituitary Gland
  % Dose: 0.00%
  Conc.: 0.23 ug-eq/g
[6]; Prostate
  % Dose: 0.00%
  Conc.: 0.23 ug-eq/g
[6]; Salivary Gland (L + R)
  % Dose: 0.00%
  Conc.: 0.45 ug-eq/g
[6]; Skeletal Muscle
  % Dose: 0.00%
  Conc.: 0.11 ug-eq/g
[6]; Skin
  % Dose: 0.00%
  Conc.: 0.13 ug-eq/g
[6]; Spinal Cord
  % Dose: 0.00%
  Conc.: <LOD
[6]; Spleen
  % Dose: 0.00%
  Conc.: 0.63 ug-eq/g
[6]; Stomach
  % Dose: 0.11%
[6]; Testes (L + R)
  % Dose: 0.02%
[6]; Thyroid Gland
  % Dose: 0.00%
  Conc.: 0.30 ug-eq/g
[6]; Whole Blood
  % Dose: 0.00%
  Conc.: 0.85 ug-eq/g
[6]; dog, in vivo
  prodrug concentration in the plasma: below the level of assay detection

## C[C@H](Cn1cnc2c(N)ncnc21)OCP(=O)(O)O [PMPA, (R)-9-[2-(phosphonomethoxy)propyl]adenine, reference compound]
[1]
  Fold change: 1x

## COC(=O)[C@H](Cc1ccccc1)NP(=O)(CO[C@H](C)Cn1cnc2c(N)ncnc21)Oc1ccccc1 (some centres unmarked) [Phe-methylester]
[1]
  A/B activity: 10x
  Fold change: 170x

## CC(C)OC(=O)OCOP(=O)(CO[C@H](C)Cn1cnc2c(N)ncnc21)OCOC(=O)OC(C)C [compound 7]
[4]
  Human Plasma Stability (HP) t1/2: 0.41 min

## CCOC(=O)CNP(=O)(COC(C)Cn1cnc2c(N)ncnc21)Oc1ccccc1 (mixture of isomers) [Gly-ethylester]
[1]
  A/B activity: 20x
  Fold change: 10x
[1]; read-out: IC50
  IC50: 500 nM

## COC(=O)C(Cc1ccccc1)NP(=O)(COC(C)Cn1cnc2c(N)ncnc21)Oc1ccccc1 (single isomer, unassigned) [GS-7003b]
[1]
  Fold change: 50x
